Measurements published in ChEMBL document CHEMBL3627674, “Discovery of wrightiadione as a novel template for the TrkA kinase inhibitors” (Bioorg Med Chem Lett, 2015).

Legend:
[1] = test system: Serine/threonine-protein kinase B-raf (Homo sapiens), P15056 [V600E]; experiment: Inhibition of BRAF V600E mutant (unknown origin) assessed as remaining activity at 10 uM by high-throughput assay relative to control
[2] = target: Serine/threonine-protein kinase PAK 4 (Homo sapiens) (UniProt O96013); experiment: Inhibition of PAK4 (unknown origin) assessed as remaining activity at 10 uM by high-throughput assay relative to control
[3] = target: Serine/threonine-protein kinase PAK 2 (Homo sapiens) (UniProt Q13177); experiment: Inhibition of PAK2 (unknown origin) assessed as remaining activity at 10 uM by high-throughput assay relative to control
[4] = target: Dual specificity tyrosine-phosphorylation-regulated kinase 1B (Homo sapiens) (UniProt Q9Y463); experiment: Inhibition of DYRK1B (unknown origin) assessed as remaining activity at 10 uM by high-throughput assay relative to control
[5] = target: Inhibitor of nuclear factor kappa-B kinase subunit beta (Homo sapiens) (UniProt O14920); experiment: Inhibition of IKK-beta (unknown origin) assessed as remaining activity at 10 uM by high-throughput assay relative to control
[6] = target: Receptor tyrosine-protein kinase erbB-4 (Homo sapiens) (UniProt Q15303); experiment: Inhibition of ERBB4 (unknown origin) assessed as remaining activity at 10 uM by high-throughput assay relative to control
[7] = target: Tyrosine-protein kinase receptor UFO (Homo sapiens) (UniProt P30530); experiment: Inhibition of AXL (unknown origin) assessed as remaining activity at 10 uM by high-throughput assay relative to control
[8] = target: Aurora kinase B (Homo sapiens) (UniProt Q96GD4); experiment: Inhibition of AURKB (unknown origin) assessed as remaining activity at 10 uM by high-throughput assay relative to control
[9] = test system: Epidermal growth factor receptor (Homo sapiens), P00533 [L858R]; experiment: Inhibition of EGFR L858R mutant (unknown origin) assessed as remaining activity at 10 uM by high-throughput assay relative to control; type: protein assay
[10] = target: Cyclin-dependent kinase 11B (Homo sapiens) (UniProt P21127); experiment: Inhibition of CDK11 (unknown origin) assessed as remaining activity at 10 uM by high-throughput assay relative to control
[11] = target: RAF proto-oncogene serine/threonine-protein kinase (Homo sapiens) (UniProt P04049); experiment: Inhibition of RAF1 (unknown origin) assessed as remaining activity at 10 uM by high-throughput assay relative to control
[12] = target: Mitogen-activated protein kinase kinase kinase 4 (Homo sapiens) (UniProt Q9Y6R4); experiment: Inhibition of MAP3K4 (unknown origin) assessed as remaining activity at 10 uM by high-throughput assay relative to control
[13] = target: Angiopoietin-1 receptor (Homo sapiens) (UniProt Q02763); experiment: Inhibition of TIE2 (unknown origin) assessed as remaining activity at 10 uM by high-throughput assay relative to control
[14] = target: Cyclin-dependent kinase 9 (Homo sapiens) (UniProt P50750); experiment: Inhibition of CDK9 (unknown origin) assessed as remaining activity at 10 uM by high-throughput assay relative to control
[15] = target: Cyclin-dependent kinase 2 (Homo sapiens) (UniProt P24941); experiment: Inhibition of CDK2 (unknown origin) assessed as remaining activity at 10 uM by high-throughput assay relative to control
[16] = target: Tyrosine-protein kinase JAK3 (Homo sapiens) (UniProt P52333); experiment: Inhibition of JAK3 JH1 catalytic domain (unknown origin) assessed as remaining activity at 10 uM by high-throughput assay relative to control
[17] = target: Cyclin-dependent kinase 7 (Homo sapiens) (UniProt P50613); experiment: Inhibition of CDK7 (unknown origin) assessed as remaining activity at 10 uM by high-throughput assay relative to control
[18] = target: Proto-oncogene tyrosine-protein kinase Src (Homo sapiens) (UniProt P12931); experiment: Inhibition of SRC (unknown origin) assessed as remaining activity at 10 uM by high-throughput assay relative to control
[19] = target: Serine/threonine-protein kinase 32C (Homo sapiens) (UniProt Q86UX6); experiment: Inhibition of YANK3 (unknown origin) assessed as remaining activity at 10 uM by high-throughput assay relative to control
[20] = target: Insulin receptor (Homo sapiens) (UniProt P06213); experiment: Inhibition of INSR (unknown origin) assessed as remaining activity at 10 uM by high-throughput assay relative to control
[21] = target: Mast/stem cell growth factor receptor Kit (Homo sapiens) (UniProt P10721); experiment: Inhibition of KIT (unknown origin) assessed as remaining activity at 10 uM by high-throughput assay relative to control
[22] = target: Non-receptor tyrosine-protein kinase TYK2 (Homo sapiens) (UniProt P29597); experiment: Inhibition of TYK2 JH1 catalytic domain (unknown origin) assessed as remaining activity at 10 uM by high-throughput assay relative to control
[23] = target: Epidermal growth factor receptor (Homo sapiens) (UniProt P00533); experiment: Inhibition of EGFR (unknown origin) assessed as remaining activity at 10 uM by high-throughput assay relative to control
[24] = target: Serine/threonine-protein kinase PLK3 (Homo sapiens, UniProt Q9H4B4); experiment: Inhibition of PLK3 (unknown origin) assessed as remaining activity at 10 uM by high-throughput assay relative to control

Chain of Insulin receptor (Homo sapiens) (P06213 28-758 limits assumed): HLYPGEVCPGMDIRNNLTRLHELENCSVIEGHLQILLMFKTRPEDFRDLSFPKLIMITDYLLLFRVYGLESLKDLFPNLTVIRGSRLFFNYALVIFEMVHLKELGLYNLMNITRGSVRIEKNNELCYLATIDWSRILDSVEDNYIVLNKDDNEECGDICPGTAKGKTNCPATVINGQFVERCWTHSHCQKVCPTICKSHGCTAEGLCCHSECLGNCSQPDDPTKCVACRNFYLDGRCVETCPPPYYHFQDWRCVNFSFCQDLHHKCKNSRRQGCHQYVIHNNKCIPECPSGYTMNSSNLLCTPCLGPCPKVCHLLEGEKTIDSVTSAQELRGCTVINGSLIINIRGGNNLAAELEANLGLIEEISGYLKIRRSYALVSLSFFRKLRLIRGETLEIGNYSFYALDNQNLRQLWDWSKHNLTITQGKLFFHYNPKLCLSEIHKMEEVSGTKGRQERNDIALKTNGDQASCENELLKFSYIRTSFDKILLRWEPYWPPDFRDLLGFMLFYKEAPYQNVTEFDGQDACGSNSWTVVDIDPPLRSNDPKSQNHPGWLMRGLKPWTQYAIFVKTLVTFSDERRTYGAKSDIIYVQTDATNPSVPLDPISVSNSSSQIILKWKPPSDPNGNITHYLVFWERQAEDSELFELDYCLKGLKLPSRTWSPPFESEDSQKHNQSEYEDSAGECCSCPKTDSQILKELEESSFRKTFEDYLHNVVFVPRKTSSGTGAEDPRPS
Chain of Insulin receptor (Homo sapiens) (P06213 763-1382 limits assumed): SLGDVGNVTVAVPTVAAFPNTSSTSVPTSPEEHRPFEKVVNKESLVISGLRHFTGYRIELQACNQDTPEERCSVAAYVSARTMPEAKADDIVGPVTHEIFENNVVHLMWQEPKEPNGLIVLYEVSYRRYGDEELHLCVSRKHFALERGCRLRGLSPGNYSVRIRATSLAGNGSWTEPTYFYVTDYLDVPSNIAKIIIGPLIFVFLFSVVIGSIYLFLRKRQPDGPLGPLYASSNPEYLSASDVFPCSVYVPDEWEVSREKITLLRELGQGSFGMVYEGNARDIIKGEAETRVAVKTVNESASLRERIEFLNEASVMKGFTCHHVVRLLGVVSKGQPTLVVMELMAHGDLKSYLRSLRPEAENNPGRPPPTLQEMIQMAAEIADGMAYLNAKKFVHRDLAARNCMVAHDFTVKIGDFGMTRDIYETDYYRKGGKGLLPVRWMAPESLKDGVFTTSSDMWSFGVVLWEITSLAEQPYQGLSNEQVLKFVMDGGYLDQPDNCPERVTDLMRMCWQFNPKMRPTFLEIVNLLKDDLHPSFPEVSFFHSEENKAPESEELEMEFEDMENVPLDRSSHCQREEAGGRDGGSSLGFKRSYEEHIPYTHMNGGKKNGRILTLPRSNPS
Chain of Non-receptor tyrosine-protein kinase TYK2 (Homo sapiens) (P29597 whole entry, the tested form may be a part): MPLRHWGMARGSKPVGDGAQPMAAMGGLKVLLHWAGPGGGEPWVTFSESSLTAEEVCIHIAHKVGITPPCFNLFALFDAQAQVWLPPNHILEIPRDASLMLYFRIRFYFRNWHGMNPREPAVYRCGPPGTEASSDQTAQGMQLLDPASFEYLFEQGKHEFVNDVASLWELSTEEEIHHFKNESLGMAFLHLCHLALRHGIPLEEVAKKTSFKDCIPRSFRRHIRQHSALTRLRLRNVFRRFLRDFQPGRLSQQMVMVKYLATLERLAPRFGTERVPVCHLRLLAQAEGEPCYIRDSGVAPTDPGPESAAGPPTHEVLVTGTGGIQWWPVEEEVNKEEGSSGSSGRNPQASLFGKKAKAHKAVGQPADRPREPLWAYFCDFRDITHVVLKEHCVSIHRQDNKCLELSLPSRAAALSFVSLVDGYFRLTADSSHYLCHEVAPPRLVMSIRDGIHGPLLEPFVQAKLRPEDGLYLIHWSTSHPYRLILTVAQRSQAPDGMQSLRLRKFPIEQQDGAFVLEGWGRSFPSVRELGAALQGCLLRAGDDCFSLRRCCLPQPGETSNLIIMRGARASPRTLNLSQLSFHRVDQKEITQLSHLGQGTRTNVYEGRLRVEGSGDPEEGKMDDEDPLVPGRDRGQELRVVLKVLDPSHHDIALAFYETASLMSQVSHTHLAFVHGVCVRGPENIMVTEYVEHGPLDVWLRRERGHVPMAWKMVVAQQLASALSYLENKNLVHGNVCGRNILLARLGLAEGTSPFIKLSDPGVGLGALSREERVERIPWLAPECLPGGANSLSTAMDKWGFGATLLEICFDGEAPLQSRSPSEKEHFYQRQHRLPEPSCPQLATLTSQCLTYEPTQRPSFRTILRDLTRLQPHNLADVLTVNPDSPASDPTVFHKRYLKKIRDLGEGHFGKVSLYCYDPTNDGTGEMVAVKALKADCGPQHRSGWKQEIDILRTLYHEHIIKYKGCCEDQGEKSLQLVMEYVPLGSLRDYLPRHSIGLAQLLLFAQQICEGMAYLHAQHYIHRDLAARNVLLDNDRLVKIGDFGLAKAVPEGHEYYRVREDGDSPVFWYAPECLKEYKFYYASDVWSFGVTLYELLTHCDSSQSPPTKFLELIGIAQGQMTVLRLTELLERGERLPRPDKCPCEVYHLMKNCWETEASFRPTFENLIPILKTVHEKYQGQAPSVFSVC
Chain of Serine/threonine-protein kinase PAK 2 (Homo sapiens) (Q13177 whole entry): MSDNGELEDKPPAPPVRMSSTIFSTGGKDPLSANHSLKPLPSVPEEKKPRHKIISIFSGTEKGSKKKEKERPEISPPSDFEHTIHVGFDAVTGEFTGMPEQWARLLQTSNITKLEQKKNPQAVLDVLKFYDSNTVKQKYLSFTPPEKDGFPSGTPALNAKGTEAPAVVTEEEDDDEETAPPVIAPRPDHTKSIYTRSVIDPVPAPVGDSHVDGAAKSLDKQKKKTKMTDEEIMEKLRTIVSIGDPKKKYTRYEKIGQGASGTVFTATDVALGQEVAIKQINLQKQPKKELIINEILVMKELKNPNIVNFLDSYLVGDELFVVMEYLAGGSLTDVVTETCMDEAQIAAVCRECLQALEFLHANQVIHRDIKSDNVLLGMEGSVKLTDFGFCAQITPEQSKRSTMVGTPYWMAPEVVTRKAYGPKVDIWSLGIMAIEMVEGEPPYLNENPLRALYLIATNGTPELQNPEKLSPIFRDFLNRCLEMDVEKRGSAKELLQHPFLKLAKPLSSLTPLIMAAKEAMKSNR
Chain of Cyclin-dependent kinase 9 (Homo sapiens) (P50750 whole entry): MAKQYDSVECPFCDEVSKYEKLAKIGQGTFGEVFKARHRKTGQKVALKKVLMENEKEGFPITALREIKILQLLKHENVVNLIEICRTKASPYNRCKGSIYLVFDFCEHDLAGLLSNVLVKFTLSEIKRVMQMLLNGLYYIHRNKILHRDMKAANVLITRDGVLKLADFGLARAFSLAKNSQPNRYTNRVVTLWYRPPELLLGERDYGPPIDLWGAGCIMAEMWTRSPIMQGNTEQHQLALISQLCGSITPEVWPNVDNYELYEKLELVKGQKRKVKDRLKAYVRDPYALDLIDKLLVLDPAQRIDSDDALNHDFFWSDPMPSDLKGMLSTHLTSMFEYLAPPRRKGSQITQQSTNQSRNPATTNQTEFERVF
Chain of Cyclin-dependent kinase 11B (Homo sapiens) (P21127 whole entry): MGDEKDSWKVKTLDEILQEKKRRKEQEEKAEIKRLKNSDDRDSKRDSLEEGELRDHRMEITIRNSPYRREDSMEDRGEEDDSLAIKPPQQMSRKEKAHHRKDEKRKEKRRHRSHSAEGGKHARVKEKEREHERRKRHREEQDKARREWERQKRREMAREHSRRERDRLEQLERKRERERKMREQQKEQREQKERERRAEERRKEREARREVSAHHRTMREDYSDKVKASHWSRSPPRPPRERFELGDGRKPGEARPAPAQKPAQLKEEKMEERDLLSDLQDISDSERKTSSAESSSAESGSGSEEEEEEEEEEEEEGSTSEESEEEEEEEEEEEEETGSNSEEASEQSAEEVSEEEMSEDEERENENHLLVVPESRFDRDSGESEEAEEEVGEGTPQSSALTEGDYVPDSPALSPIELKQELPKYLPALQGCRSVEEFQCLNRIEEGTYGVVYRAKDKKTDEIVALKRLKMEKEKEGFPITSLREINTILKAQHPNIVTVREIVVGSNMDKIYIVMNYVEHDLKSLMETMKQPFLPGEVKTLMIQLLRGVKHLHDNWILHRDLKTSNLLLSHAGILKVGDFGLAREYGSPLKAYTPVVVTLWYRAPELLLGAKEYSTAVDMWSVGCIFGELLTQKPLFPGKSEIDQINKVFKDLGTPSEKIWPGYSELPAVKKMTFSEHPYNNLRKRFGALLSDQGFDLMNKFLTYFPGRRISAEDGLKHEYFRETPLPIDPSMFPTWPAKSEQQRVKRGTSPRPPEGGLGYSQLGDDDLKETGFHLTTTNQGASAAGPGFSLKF
Chain of Aurora kinase B (Homo sapiens) (Q96GD4 whole entry): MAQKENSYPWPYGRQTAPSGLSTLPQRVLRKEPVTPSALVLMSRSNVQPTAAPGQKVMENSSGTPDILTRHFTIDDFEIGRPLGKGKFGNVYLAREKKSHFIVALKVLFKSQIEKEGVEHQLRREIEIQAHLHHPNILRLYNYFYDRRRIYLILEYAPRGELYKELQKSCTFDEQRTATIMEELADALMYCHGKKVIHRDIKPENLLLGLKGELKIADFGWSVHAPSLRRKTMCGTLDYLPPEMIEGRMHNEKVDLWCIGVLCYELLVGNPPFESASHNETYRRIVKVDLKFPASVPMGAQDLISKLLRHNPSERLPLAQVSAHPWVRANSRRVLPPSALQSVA
Chain of Cyclin-dependent kinase 7 (Homo sapiens) (P50613 whole entry): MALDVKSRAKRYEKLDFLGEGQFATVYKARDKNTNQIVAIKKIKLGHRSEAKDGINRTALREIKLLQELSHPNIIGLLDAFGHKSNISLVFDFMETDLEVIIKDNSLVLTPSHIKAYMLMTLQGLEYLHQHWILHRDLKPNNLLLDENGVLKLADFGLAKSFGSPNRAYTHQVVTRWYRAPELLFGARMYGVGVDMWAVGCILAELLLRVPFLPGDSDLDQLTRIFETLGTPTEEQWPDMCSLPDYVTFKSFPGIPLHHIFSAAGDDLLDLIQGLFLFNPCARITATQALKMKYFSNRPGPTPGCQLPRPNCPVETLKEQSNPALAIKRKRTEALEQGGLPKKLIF

**Q.** What does the source list for O=C1c2ccccc2-c2c1oc1ccccc1c2=O?
**A.** Activity [1]: 72%; Activity [2]: 98%; Activity [3]: 82%; Activity [4]: 52%; Activity [5]: 73%; Activity [6]: 100%; Activity [7]: 26%; Activity [8]: 66%; Activity [9]: 90%; Activity [10]: 66%; Activity [11]: 92%; Activity [12]: 91%; Activity [13]: 74%; Activity [14]: 71%; Activity [15]: 82%; Activity [16]: 61%; Activity [17]: 59%; Activity [18]: 83%; Activity [19]: 78%; Activity [20]: 72%; Activity [21]: 38%; Activity [22]: 44%; Activity [23]: 93%; Activity [24]: 8.3%
